Test results published in ChEMBL document CHEMBL6096712, “Ligand Design with Accelerated Disulfide Formation with Serum Albumin to Extend Blood Retention” (ACS Med Chem Lett, 2025).

Tests used:
Type in all cases: ADME, organism-based
[1] = Volume of distribution in C57BL/6N mouse at 0.171 mM, iv measured upto 24 hrs; conditions: in vivo
[2] = Terminal half life in C57BL/6N mouse at 0.171 mM, iv measured upto 24 hrs; conditions: in vivo, read-out: beta t1/2 (converted)
[3] = AUCt in C57BL/6N mouse at 0.171 mM, iv measured upto 24 hrs; conditions: in vivo
[4] = Primary phase half life in C57BL/6N mouse at 0.171 mM, iv measured upto 24 hrs; conditions: in vivo, read-out: alphat1/2 (converted)
[5] = Clearance in C57BL/6N mouse at 0.171 mM, iv measured upto 24 hrs; conditions: in vivo

Vd at 171 µM [1] [L/kg]	half-life at 171 µM [2] [h]	AUC(0-t) at 24 h, 171 µM [3] [ng·h/mL]	half-life at 171 µM [4] [h]	clearance at 171 µM [5] [mL/min/kg]	Structure (SMILES)
0.0284	7.62	146000	1.51	0.135	CCCCCCCCCCCCCCCC(=O)NCCCCC(NC(=O)COCCOCCNC(=O)CCCCC[N+]1=C(/C=C/C2=CC(=C/C=C3/N(C)c4ccc(S(=O)(=O)O)cc4C3(C)C)/CCC2)C(C)(C)c2cc(S(=O)(=O)[O-])ccc21)C(=O)NCCOCCOCC(=O)NCCOCCOCC(=O)NC(CSSc1ccccn1)C(N)=O (centres undefined)
0.0413	4.73	50500	1.26	0.307	CN1/C(=C/C=C2C=C(/C=C/C3=[N+](CCCCCC(=O)NCCOCCOCC(=O)NCCOCCOCC(=O)NCCOCCOCC(=O)NC(CSSc4ccccn4)C(N)=O)c4ccc(S(=O)(=O)[O-])cc4C3(C)C)CCC/2)C(C)(C)c2cc(S(=O)(=O)O)ccc21 (centres undefined)
0.0427	0.83	30800	–	0.563	CCCCCCCCCCCCCCCC(=O)NCCCCC(NC(=O)COCCOCCNC(=O)CCCCC[N+]1=C(/C=C/C2=CC(=C/C=C3/N(C)c4ccc(S(=O)(=O)O)cc4C3(C)C)/CCC2)C(C)(C)c2cc(S(=O)(=O)[O-])ccc21)C(=O)NCCOCCOCC(=O)NCCOCCOCC(N)=O (centres undefined)
